The assay has as its system endogenous cellular STAT1 (phosphorylated at Tyr701) in NCI-H1373 cells. As to the kind of experiment: Phospho-STAT1 (Tyr701) LANCE Ultra TR-FRET Detection Assay. The format is cell-based. To be noted: Homo sapiens, NCI-H1373, 48 h, phospho-STAT1 (Tyr701) induction, read-out: NH1373 pSTAT1 EC50. In general terms: Time-resolved FRET reads energy transfer from a long-lived donor to a nearby acceptor.

For orientation: EC50 means the concentration giving half of the maximal effect. For `O=c1[nH]ncc(N[C@H](CCCn2ccc3cc(-c4ncc(C(F)(F)F)cn4)c(F)cc3c2=O)CC(F)(F)F)c1C(F)(F)F` [Example 453, (R)-7-fluoro-2-(6,6,6-trifluoro-4-((6-oxo-5-(trifluoromethyl)-1,6-dihydropyridazin-4-yl)amino)hexyl)-6-(5-(trifluoromethyl)pyrimidin-2-yl)isoquinolin-1(2H)-one], the EC50 is 215 nM.
Take `C[C@@H](CCCn1ccc2cc(-c3ncc(C4CC4)c(N)n3)c(F)cc2c1=O)Nc1cn[nH]c(=O)c1C(F)(F)F` [Example 107, 6-(4-amino-5-cyclopropyl-pyrimidin-2-yl)-7-fluoro-2-[(4S)-4-[[6-oxo-5-(trifluoromethyl)-1H-pyridazin-4-yl]amino]pentyl]isoquinolin-1-one]: the EC50 is 2.22 nM.
To `C[C@@H](CCCn1ccc2cc(-c3ccc4ncsc4n3)c(F)cc2c1=O)Nc1cn[nH]c(=O)c1C(F)(F)F` [Example 333, (S)-7-fluoro-2-(4-((6-oxo-5-(trifluoromethyl)-1,6-dihydropyridazin-4-yl)amino)pentyl)-6-(thiazolo[5,4-b]pyridin-5-yl)isoquinolin-1(2H)-one] belongs 503 nM; to `Nc1nc(-c2cc3ncn(C[C@@H]4CCC[C@H](Nc5cn[nH]c(=O)c5C(F)(F)F)C4)c(=O)c3cc2F)ncc1Cl` [Example 261, 7-(4-amino-5-chloropyrimidin-2-yl)-6-fluoro-3-(((1R,3S)-3-((6-oxo-5-(trifluoromethyl)-1,6-dihydropyridazin-4-yl)amino)cyclohexyl)methyl)quinazolin-4(3H)-one], 6.1 nM; to `Cc1c[nH]c2nc(-c3cc4ncn(CCC[C@H](C)Nc5cn[nH]c(=O)c5C(F)(F)F)c(=O)c4cc3F)ncc12` [Example 63, 6-fluoro-7-(5-methyl-7H-pyrrolo[2,3-d]pyrimidin-2-yl)-3-[(4S)-4-[[6-oxo-5-(trifluoromethyl)-1H-pyridazin-4-yl]amino]pentyl]quinazolin-4-one], 7.15 nM.
To `O=c1[nH]ncc(N[C@H](CCCn2ccc3cc(-c4ccc(C(F)(F)F)cn4)c(F)cc3c2=O)COC(F)F)c1C(F)(F)F` [Example 399, (R)-2-(5-(difluoromethoxy)-4-((6-oxo-5-(trifluoromethyl)-1,6-dihydropyridazin-4-yl)amino)pentyl)-7-fluoro-6-(5-(trifluoromethyl)pyridin-2-yl)isoquinolin-1(2H)-one] belongs 2.98 nM; to `COc1cnc(-c2cc3ccn(CCC[C@H](COC(F)F)Nc4cn[nH]c(=O)c4C(F)(F)F)c(=O)c3cc2F)nc1N` [Example 370, (R)-6-(4-amino-5-methoxypyrimidin-2-yl)-2-(5-(difluoromethoxy)-4-((6-oxo-5-(trifluoromethyl)-1,6-dihydropyridazin-4-yl)amino)pentyl)-7-fluoroisoquinolin-1(2H)-one], 8.33 nM; to `Nc1nc(-c2cc3ncn(CC[C@H]4CCC[C@@H]4Nc4cn[nH]c(=O)c4C(F)(F)F)c(=O)c3cc2F)ncc1C(F)(F)F` [Example 464, 7-(4-amino-5-(trifluoromethyl)pyrimidin-2-yl)-6-fluoro-3-(2-((1R,2S)-2-((6-oxo-5-(trifluoromethyl)-1,6-dihydropyridazin-4-yl)amino)cvclopentyl)ethyl)quinazolin-4(3H)-one], 3.62 nM.
Turning to `O=c1[nH]ncc(N[C@H](CCCn2ccc3cc(-c4ncc(Cl)cn4)c(F)c(F)c3c2=O)COC(F)F)c1C(F)(F)F` [Example 392, (R)-6-(5-chloropyrimidin-2-yl)-2-(5-(difluoromethoxy)-4-((6-oxo-5-(trifluoromethyl)-1,6-dihydropyridazin-4-yl)amino)pentyl)-7,8-difluoroisoquinolin-1(2H)-one], the EC50 worked out at 1.5 nM.
For `CC[C@@H](CCCn1ccc2cc(-c3ncc(C(F)F)cn3)c(F)c(F)c2c1=O)Nc1cn[nH]c(=O)c1C(F)(F)F` [Example 355, (S)-6-(5-(difluoromethyl)pyrimidin-2-yl)-7,8-difluoro-2-(4-((6-oxo-5-(trifluoromethyl)-1,6-dihydropyridazin-4-yl)amino)hexyl)isoquinolin-1(2H)-one], the EC50 was found to be 11.4 nM.
To `C[C@@H](CCCn1ccc2cc(-c3ncc4c(n3)NCC4(C)C)c(F)cc2c1=O)Nc1cn[nH]c(=O)c1C(F)(F)F` [Example 112, 6-(5,5-dimethyl-6,7-dihydropyrrolo[2,3-d]pyrimidin-2-yl)-7-fluoro-2-[(4S)-4-[[6-oxo-5-(trifluoromethyl)-1H-pyridazin-4-yl]amino]pentyl]isoquinolin-1-one] belongs 2.07 nM.
Consider `Nc1nc(-c2cc3ccn(C[C@@H]4CCC[C@H](Nc5cn[nH]c(=O)c5C(F)(F)F)C4)c(=O)c3cc2F)ccc1C(F)(F)F` [Example 251, 6-(6-amino-5-(trifluoromethyl)pyridin-2-yl)-7-fluoro-2-(((1R,3S)-3-((6-oxo-5-(trifluoromethyl)-1,6-dihydropyridazin-4-yl)amino)cyclohexyl)methyl)isoquinolin-1(2H)-one], for which the EC50 is 47.3 nM.
To `O=c1[nH]ncc(N[C@H]2CCC[C@@H](Cn3ccc4cc(-c5cc6c(cn5)C(F)(F)CC6)c(F)cc4c3=O)C2)c1C(F)(F)F` [Example 496, 6-(7,7-difluoro-5,6-dihydrocyclopenta[c]pyridin-3-yl)-7-fluoro-2-[[(1R,3S)-3-[[6-oxo-5-(trifluoromethyl)-1H-pyridazin-4-yl]amino]cyclohexyl]methyl]isoquinolin-1-one] belongs 5.5 nM.
As for `C[C@@H](CCCn1ccc2cc(-c3ncc4c(n3)CS(=O)(=O)C4)c(F)cc2c1=O)Nc1cn[nH]c(=O)c1C(F)(F)F` [Example 225, (S)-6-(6,6-dioxido-5,7-dihydrothieno[3,4-d]pyrimidin-2-yl)-7-fluoro-2-(4-((6-oxo-5-(trifluoromethyl)-1,6-dihydropyridazin-4-yl)amino)pentyl)isoquinolin-1(2H)-one], the EC50 worked out at 957 nM.
As for `O=c1[nH]ncc(N[C@H]2CCC[C@@H](Cn3ccc4cc(-c5ncc(C(F)(F)F)cn5)cc(F)c4c3=O)C2)c1C(F)(F)F` [Example 285, 8-fluoro-2-(((1R,3S)-3-((6-oxo-5-(trifluoromethyl)-1,6-dihydropyridazin-4-yl)amino)cyclohexyl)methyl)-6-(5-(trifluoromethyl)pyrimidin-2-yl)isoquinolin-1(2H)-one], the figure is 78.7 nM.
To `O=c1[nH]ncc(N[C@H]2CCC[C@@H](Cn3ccc4cc(-c5cnc(C(F)F)cn5)c(F)c(F)c4c3=O)C2)c1C(F)(F)F` [Example 253, 6-(5-(difluoromethyl)pyrazin-2-yl)-7,8-difluoro-2-(((1R,3S)-3-((6-oxo-5-(trifluoromethyl)-1,6-dihydropyridazin-4-yl)amino)cyclohexyl)methyl)isoquinolin-1(2H)-one] belongs 9.41 nM.
Regarding `O=c1[nH]ncc(N[C@H](CCCn2ccc3cc(-c4ncc(C(F)(F)F)cn4)c(F)cc3c2=O)CCOC(F)F)c1C(F)(F)F` [Example 466, 2-[(4R)-6-(difluoromethoxy)-4-[[6-oxo-5-(trifluoromethyl)-1H-pyridazin-4-yl]amino]hexyl]-7-fluoro-6-[5-(trifluoromethyl)pyrimidin-2-yl]isoquinolin-1-one], the EC50 turned out to be 6.52 nM.

Values taken from patent US12459922B2 (Gilead Sciences, Inc., priority 2022, dated 2025).
